Earlier results on two compounds are cited in patent US20070225544A1, “APPARATUSES AND TECHNIQUES FOR BIOACTIVE DRUG DELIVERY IN THE PROSTATE GLAND” (priority 2006, published 2007).

The subject of data set [1] is benign prostatic hypertrophy (BPH). Particulars: in vivo.

With `CC(=O)OCC(=O)[C@@]1(O)CC[C@H]2[C@@H]3CCC4=CC(=O)CC[C@]4(C)[C@H]3[C@@H](O)C[C@@]21C` [Hydrocortisone acetate], where the note is “relative duration of action of injectable corticosteroid agent”, the Duration result is reported as “Short”. Besides, the Potency result (relative potency of injectable corticosteroid agent) is listed as “Low”.

botulinum-toxin: in data set [1], the “decrease in urinary symptoms” value is 30% and the “effective for up to ... in managing BPH” value was “up to 1 year”.
